# Read-outs that look alike come from different tables or passages of the source.
# Key:
# human white blood cells = assay: Staining of lysed whole blood, fluorescence by flow cytometry; format: cell-based
# Experimental: (§1) After characterizing the various xanthene dyes prepared in accordance with this invention, one of the dyes (VBDB) was used to stain cells. The ability of VBDB to stain cells was compared with BCECF-AM, a membrane permeable esterase substrate (Molecular Probes) and fluorescein diacetate (FDA). […] After incubation, the tube was centrifuged. This procedure specifically lyses red blood cells leaving the white cells intact and viable. The supernatant was removed and the white blood cells which remained were washed twice and resuspended in blood cell diluent (1 mL, Diagnostic Technology, Inc.). The cell concentration and the percentage of dead cells were ascertained by counting the cells manually using a fluorescent microscope and a hemacytometer; acridine orange and ethidium bromide were used to stain live and dead cells respectively.
# (§2) Four samples of approximately 1.7×10^6 cells then were placed in polystyrene tubes. To each tube was added one of the following solutions (1 mL): FDA (1 uM) BCECF-AM (1 uM), VBDB (0.8 uM), or VBDB (8.0 uM). The dye solutions were prepared by diluting a stock solution of each dye (1-8 mM in DMSO) into blood cell diluent. The tubes were kept at room temperature for 30 minutes. The samples were washed three times and resuspended in blood cell diluent (1 mL).
# (§3) A bandpass 530/30 emission filter was used for both FDA and BCECF-AM, while a bandpass 660/20 emission filter was used for VBDB. Data from 10,000 events were acquired from each of these samples immediately after staining, one hour after staining, and two hours after staining.
# (§4) Referring to FIG. 2, VBDB, BCECF-AM and FDA were compared as vital dyes by staining lysed whole blood and examining the fluorescence by flow cytometry. […] Four samples of cells were incubated with BCECF AM (1 uM), FDA (1 uM) and VBDB (0.8 uM, 8.0 uM). The cells were analyzed immediately after staining (t=0), after one hour (t=1) and after two hours (t=2).
# (§5) The data in FIG. 2 also was used to quantitate the "live" cells and the "dead" cells. […] It was assumed the live cells were those cells which retained the dye (the right peak) and that dead cells were those cells whose membranes had become leaky (the left peak). By setting the gate to the immediate left of the main peak, the "dead" cells to the left of the gate were counted.
# [1] = Membrane permeability of diacetates; settings: diacetate esters
# [2] = target: T1, pig liver esterase (E.C. 3.1.1.1) (Sus scrofa, UniProt Q29550); assay: Enzymatic hydrolysis by esterase (Km, Lineweaver-Burk); format: biochemical
# T1 sequence (Q29550 19-566): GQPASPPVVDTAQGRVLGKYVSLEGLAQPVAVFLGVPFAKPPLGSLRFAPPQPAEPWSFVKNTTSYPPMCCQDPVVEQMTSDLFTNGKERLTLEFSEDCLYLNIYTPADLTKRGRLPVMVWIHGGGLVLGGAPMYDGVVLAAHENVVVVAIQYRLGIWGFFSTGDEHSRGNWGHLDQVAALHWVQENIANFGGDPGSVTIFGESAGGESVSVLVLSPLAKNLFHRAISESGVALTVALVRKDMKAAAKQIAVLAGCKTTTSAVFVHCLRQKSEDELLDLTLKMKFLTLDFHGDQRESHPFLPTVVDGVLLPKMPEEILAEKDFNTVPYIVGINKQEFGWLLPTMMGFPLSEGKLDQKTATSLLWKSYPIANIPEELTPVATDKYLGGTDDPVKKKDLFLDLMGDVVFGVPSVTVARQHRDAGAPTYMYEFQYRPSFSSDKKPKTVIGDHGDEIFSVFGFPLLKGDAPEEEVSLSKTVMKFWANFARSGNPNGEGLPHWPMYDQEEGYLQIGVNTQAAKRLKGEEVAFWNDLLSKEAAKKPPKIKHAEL
# Stability in water = settings: pH 7
# [3] = Fluorescence emission maximum and quantum yield; format: physicochemical
# Experimental: Second, quantum yields of compounds 1-9 and 14 were measured. Solutions (1×10^-6 M) of compounds 1-9 were prepared in carbonate/ bicarbonate buffer (pH 9.5). Fluorescence emission spectra were measured on a Perkin-Elmer MPF-2A fluorescence spectrophotometer in 3-mL disposable plastic cuvettes. The excitation wavelength was set 30 nm to the red of the maximum excitation wavelength and the emission spectra measured. The area under the emission spectrum was measured (F). The quantum yield (.PHI.) was determined using the following equation, F-kIo .PHI.εcb, where F is the fluorescence, k is a fluorimeter constant, Io is the light intensity at the exciting wavelength, ε is the extinction coefficient at the exciting wavelength, c is the concentration of the dye, and b is the pathlength of the cuvette. The value of k was determined for three different emission wavelength regions by using literature values of .PHI. and measuring the fluorescence of fluorescein (470-670 nm, .PHI.=0.92), eosin (500-700 nm, .PHI.=0.19) and allophycocyanin (Applied BioSystems, 600-800 nm, .PHI.=0.68). The value of Io was determined from a table that was generated by scanning the range of exciting wavelengths on the fluorescence spectrophotometer with the emission monochrometer open; a piece of white paper was placed in the sample holder to reflect the exciting light. The concentration of the dyes were 0.6-1.0 uM; this value in each case was below the concentration ([…]) required in order for the equation to be valid.
# (§6) Finally, the spectral characteristics of compounds 1-9 was determined. The extinction coefficients and quantum yields or compounds 1-9 were determined at pH 9.5. The extinction coefficient and quantum yield of monoprotonated Vita Blue was also determined at pH 5.2. The extinction coefficient and the quantum yield of VBDB were determined at pH 7.2.
# [4] = Staining of lysed whole blood, fluorescence by flow cytometry; format: cell-based, human; settings: human, white blood cells
# Experimental: as §1, §2, §3, §4, §5
# [5] = Absorbance maximum and extinction coefficient; format: physicochemical
# Experimental: First, the extinction coefficient of compounds 1-9 and 14 was determined. Stock solutions (5×10^-3 M) of each dye were made by dissolving the dye in two equivalents of 0.1 N NaOH and making up the volume with carbonate/bicarbonate buffer (0.16, 0.34 M, pH 9.5). The solution was diluted ([…]) in additional buffer (final pH 9.5-10) and the absorbance spectrum measured. A stock solution (1.2×10^-3 M) of Vita Blue was prepared in DMSO, diluted into citrate buffer (0.1 M, pH 5 2) to give a final concentration of 1.6×10^-5 M and the absorbance spectrum measured. A stock solution (8.2×10^-3 M) of VBDB was prepared in DMSO and diluted into pyrophosphate buffer (0.1 M, pH 7.2) to give a final concentration of 8.1×10^-5 M and the absorbance spectrum measured on a Beckman model DU-6UV visible spectrophotometer.
# as §6
# [6] = 470-670 nm (fluorescein), 500-700 nm (eosin), 600-800 nm (allophycocyanin); cited from earlier work
# [7] = cited from earlier work
# [8] = not told
# [9] = pH 7
# [10] = Fluorescence emission spectra of Vita Blue at varying pH; format: physicochemical
# Experimental: Fluorescence emission spectra of Vita Blue also was determined. To each of five plastic cuvettes (3 mL) were added one of the following buffered solutions (0.1 M): citrate buffer (pH 4.21), pyrophosphate buffer at three pH values (6.22, 7.21, 9.05), and EPPS buffer (pH 8.37). Vita Blue solution (5 uL, 1.25×10^-3 M) was added, and the fluorescence emission spectra from 450 to 650 nm was measured. The excitation wavelength was 540 nm.
# [11] = Absorbance titration of Vita Blue; format: physicochemical
# Experimental: Absorbance titration of Vita Blue then was measured. To a plastic cuvette (3 mL) was added the following solutions: citrate buffer (0.1 mL, 0.1 M, pH 4.2), pyrophosphate buffer (0.1 mL, 0.1 M, pH 6.2), EPPS buffer (0.1 mL, 0.1 M, pH 8.4), water (2.6 mL), HCl solution (5 uL, 6 N) and Vita Blue solution (8 or 40 uL, […]). The final concentration of Vita Blue was 3.4×10^-6 or 1.7×10^-5 M. The initial pH was approximately 3. Aliquots of NaOH solution were added (1-3 uL, 4 N) and the pH and the absorbance spectrum from 700 to 400 nm measured.
# [12] = compared to carboxy analogs 1, 4 and 7
# [13] = pH 5.2 (monoprotonated Vita Blue)
compound,measurement,setting,value
"CC(=O)Oc1ccc2c(c1)Oc1cc(OC(C)=O)ccc1C21OC(=O)c2ccccc21 [FDA, fluorescein diacetate, reference compound]",retention of initial fluorescence by stained cells over time,human white blood cells; 1 uM dye,did not retain their initial fluorescence over time
"CC(=O)Oc1ccc2c3c(ccc2c1)C1(OS(=O)(=O)c2ccccc21)c1ccc2cc(OC(C)=O)ccc2c1O3 [Diacetate ester of compound 9, Vita Blue diacetate]",membrane permeability,[1],neither diacetates were membrane permeable
same,esterase substrate,[2],esterase substrates
"CCCC(=O)Oc1ccc2c3c(ccc2c1)C1(OS(=O)(=O)c2ccccc21)c1ccc2cc(OC(=O)CCC)ccc2c1O3 [Compound 14, Vita Blue dibutyrate]",stability in water,Stability in water,relatively stable in water at pH 7
same,excitation maximum,[3],480 nm
same,EM Max,[3]; pH 7.2,552 nm
same,Quantum Yield,[3]; pH 7.2,0.03
same,EM Max,"[3]; pH 7.2, listed as dibutyrate derivative of compound 9",550 nm
same,retention of initial fluorescence by stained cells over time,human white blood cells; 0.8 uM dye,maintained their initial fluorescence
same,coefficient of variation (CV) in the fluorescence histogram,"human white blood cells; 0.8 uM, t=0",39%
same,coefficient of variation (CV) in the fluorescence histogram,"human white blood cells; 0.8 uM, t=1 h",43%
same,coefficient of variation (CV) in the fluorescence histogram,"human white blood cells; 0.8 uM, t=2 h",46%
same,retention of initial fluorescence by stained cells over time,"human white blood cells; 8 uM dye, after one hour",actually increased their fluorescence slightly after one hour
same,coefficient of variation (CV) in the fluorescence histogram,"human white blood cells; 8 uM, t=0",30%
same,coefficient of variation (CV) in the fluorescence histogram,"human white blood cells; 8 uM, t=1 h",35%
same,coefficient of variation (CV) in the fluorescence histogram,"human white blood cells; 8 uM, t=2 h",34%
same,"number of leaky cells, comparison of BCECF and VBDB","human white blood cells; after two hours, higher VBDB concentration","the same number of ""leaky"" cells after two hours"
same,deleterious effect on cells,human white blood cells; higher concentration (8 uM),did not seem to be deleterious to the cells
same,"percentage of dead (leaky) cells at 0 h, 0.8 µM","[4]; 0.8 uM, t=0",14%
same,"percentage of dead (leaky) cells at 1 h, 0.8 µM","[4]; 0.8 uM, t=1 h",18%
same,"percentage of dead (leaky) cells at 2 h, 0.8 µM","[4]; 0.8 uM, t=2 h",20%
same,percentage of dead (leaky) cells at 8 µM,"[4]; 8 uM, second value, printed t=2",17%
same,"percentage of dead (leaky) cells at 0 h, 8 µM","[4]; 8 uM, t=0",12%
same,"percentage of dead (leaky) cells at 2 h, 8 µM","[4]; 8 uM, t=2 h",22%
same,esterase substrate,[2],good substrate
same,specific activity,[2]; pH 8.0,2.5 (ug substrate) (min)^-1 (mg enzyme)^-1
same,Abs Max,[5]; pH 7.2,480 nm
same,ε (extinction coefficient),"[5]; pH 7.2, at 480 nm",5900 M⁻¹ cm⁻¹
same,ε (extinction coefficient),"[5]; pH 7.2, at 480 nm, listed as dibutyrate derivative of compound 9",5900 M⁻¹ cm⁻¹
"O=C(O)c1ccccc1-c1c2ccc(=O)cc-2oc2cc(O)ccc12 [Compound 1, fluorescein]",EM Max,[3]; pH 9.5,516 nm
same,Quantum Yield,"[3]; pH 9.5, dianionic form",0.92
same,Abs Max,[5]; pH 9.5,491 nm
same,ε (extinction coefficient),[5]; pH 9.5,80000 M⁻¹ cm⁻¹
same,"quantum yield, literature value",[6],0.92
same,Quantum Yield,[7]; background,0.93
same,difference of pKa2 and pKa3,[7]; fluorescein and related compounds,2.3 units
Sulfonefluorescein diacetate [Diacetate ester of compound 2],membrane permeability,[8],neither diacetates were membrane permeable
same,esterase substrate,[2],esterase substrates
same,stability in water,[9],relatively stable in water at pH 7
O=c1ccc2c(ccc3c(-c4ccccc4S(=O)(=O)O)c4ccc5cc(O)ccc5c4oc32)c1 [Compound 9],"isobestic point, emission spectra","[10]; excitation 540 nm, varying pH",630 nm
same,dual fluorescence,[10]; mono- and diprotonated forms,showed dual fluorescence
same,extinction coefficient and quantum yield compared to parent dyes,[3],lower than the parent dyes
same,separation of emission maxima of monoanionic and dianionic forms,[3],100 nm
same,red shift of emission maxima vs carboxy analogs,[3]; [12],1-5 nm
same,effect of sulfo group on extinction coefficient and quantum yield,[3]; compared to carboxy analogs 1 and 7,little effect
same,EM Max,[3]; [13],570 nm
same,Quantum Yield,"[3]; pH 5.2, monoanionic form",0.04
same,EM Max,[3]; pH 9.5,665 nm
same,Quantum Yield,"[3]; pH 9.5, dianionic form",0.15
same,excitation maxima compared to parent dyes,[5],at longer wavelengths
same,red shift of absorbance maxima vs carboxy analogs,[5]; [12],6-14 nm
same,Abs Max,[5]; [13],524 nm
same,ε (extinction coefficient),[5]; [13],13000 M⁻¹ cm⁻¹
same,Abs Max,[5]; pH 9.5,609 nm
same,ε (extinction coefficient),[5]; pH 9.5,36000 M⁻¹ cm⁻¹
same,absorbance peak maximum (apparent dimer),"[11]; 1.7×10^-5 M, pH 3.10, 4.06 and 6.45",600 nm
same,"isobestic point, absorbance titration",[11]; 3.4×10^-6 M,approximately 540 nm
O=C1OC2(c3ccccc31)c1cc(Br)c(O)c(Br)c1Oc1c2cc(Br)c(O)c1Br [eosin],"quantum yield, literature value",[6],0.19
allophycocyanin,"quantum yield, literature value",[6],0.68

# Source: patent US5066580A, “Xanthene dyes that emit to the red of fluorescein” (priority 1990, dated 1991)
